Reference: US20090274739A1, “METHODS AND COMPOSITIONS FOR TREATING NEOINTIMAL HYPERPLASIA” (THE TRUSTEES OF COLUMBIA UNIVERSITY IN THE CITY OF NEW YORK, priority 2006, published 2009)
Entries after “also recorded” stand apart in the source; their conditions may differ.

Legend:
[1] = test system: MAPK (p44/p42, ERK1/2) phosphorylation; experiment: Immunoblot of MAPK (ERK1/2, p44/p42) phosphorylation in VSMC; assay type: cell-based, mouse
Protocol: Western blot analysis: The cells were plated in a 100-mm culture dish in DMEM supplemented with 20% FBS for 24 h at 37° C., followed by serum starvation for 48 h. Cells were then treated with different reagents for 30 min. Cells were subsequently lysed on ice for 30 min in RIPA buffer [150 mM NaCl, 100 mM Tris (pH 8.0), 1% Triton X-100, 1% deoxycholic acid, 0.1% SDS, 5 mM EDTA, and 10 mM NaF] supplemented with 1 mM sodium vanadate, 2 mM leupeptin, 2 mM aprotinin, 1 mM phenylmethylsulfonyl fluoride (PMSF), 1 mM DTT, and 2 mM pepstatin A. After centrifugation at 14,000 rpm for 30 min, the supernatant was harvested as the total cellular protein extract, and stored at −70° C. The protein concentration was determined using Bio-Rad protein assay reagent (Richmond, Calif.). The total cellular protein extracts were separated by SDS-polyacrylamide gel electrophoresis (SDS-PAGE) and transferred to nitrocellulose membrane in 20 mM Tris-HCl (pH 8.0) containing 150 mM glycine and 20% (v/v) methanol.
Membranes were blocked with 5% nonfat dried milk in PBS containing 0.05% Tween 20 and incubated with antibodies against phospho-(Thr^202/Tyr^204) p42/p44^MAPK and p42/p44^MAPK, phospho-Akt([…]) and anti-Akt, p70^S6K, 4EBP-1. Blots were washed three times in PBS buffer, followed by incubation with the appropriate HRP-linked IgG. The specific proteins in the blots were visualized using an enhanced chemiluminescence reagent (NEN, Boston, Mass.).
VSMC were plated on 100-mm dishes, serum starved for 72 h in DMEM containing 0.1% FBS, and stimulated with 0.6 or 6 nM (10 or 100 ng/ml) leptin. Extracts were prepared by brief sonication in HKM buffer [40 mM HEPES-KOH (pH 7.6), 7.5 mM MgCl2, 0.5 mM DTT] or, in the case of Akt phosphorylation studies, by lysing cells on ice for 30 min in RIPA buffer. 70 μg of protein per sample were subjected to immunoblotting by standards protocols. Imaging and densitometry were performed on an Odyssey infrared system (Li-Cor, Lincoln, Neb.).

[2] = test system: primary murine aortic vascular smooth muscle cells (VSMC); experiment: VSMC proliferation assay (Coulter counter / MTS-based); assay type: cell-based, mouse
[3] = mouse, in vivo
Description: Animal Models and Drug Treatments. Wild type C57BL/6J background mice and mice deficient for leptin (C57BL/6J-Lepob; ob/ob) or the leptin receptor (C57BL/6J-m+/+Lepdb; db/db) were purchased from Charles Jackson Laboratories, Maine. Mice were obtained at ages 6-8 weeks old and average weight 15 g. Animals were fed standard rodent chow and tap water ad libitum. Procedures and animal care were approved by the Institutional Animal Care and Use Committee. Mice were subjected to femoral artery wire injury or sham injury described below 24 hr prior to starting pharmacological treatments. Sirolimus was administered by intraperitoneal injection once per day for 14 days as a suspension in 0.2% sodium carboxymethyl cellulose and 0.25% polysorbate-80; duplicate experiments were accomplished with 0.5% DMSO. […] Plasma leptin levels were measured at baseline, 3, 6, and 10 hr after leptin injection using an ELISA assay (R&D). […]
For leptin measurements, plasma was obtained by drawing 100 μL of retro-orbital whole blood into a heparinized tube and removing cells by centrifugation at 20,000 m/s^2 for 5 min. Plasma leptin levels were measured at baseline, 3, 6, and 10 h after leptin injection in WT mice or at baseline in ob/ob and db/db mice using the mouse leptin TiterZyme EIA kit (Assay Designs, Ann Arbor, Mich.).

Leptin: recombinant leptin; hormone derived from adipose tissue, encoded by the Ob gene
phosphorylation of the p44 and p42 forms of MAPK ([1]; Example 1, leptin 10 ng/mL): stimulated the phosphorylation | time of maximum ERK1/2 phosphorylation ([1]; Example 2, leptin 100 ng/ml, decreasing thereafter at 45 min): 10 min | phosphorylation of MAPK ([1]; Example 5, leptin 6 nM): stimulated | VSMC proliferation ([2]; Example 2, high (4500 mg/L) and normal (1250 mg/L) glucose, various leptin concentrations): potentiated the proliferation of VSMCs in a dose-dependent manner | VSMC proliferation ([2]; co-incubation of leptin 100 ng/ml with insulin 10 nmol/L): ~80% | VSMC proliferation ([2]; leptin receptor-defective (db/db) VSMC, leptin 1, 10, 100 ng/ml): not | VSMC proliferation ([2]; leptin-deficient (ob/ob) VSMC, leptin 1, 10, 100 ng/ml): induced dose-dependent VSMC proliferation; also recorded: can induce VSMC proliferation; also recorded: increased | VSMC proliferation ([2]; wild type C57BL/6J VSMC, leptin 1, 10, 100 ng/ml (0.06, 0.6, 6 nM), 72 h, vs vehicle): increased murine VSMC proliferation in a dose-dependent fashion | VSMC proliferation ([2]; wild type C57BL/6J VSMC, leptin 1, 10, 100 ng/ml (0.06, 0.6, 6 nM), 72 h, vs vehicle, listed as leptin): increased | leptin level 3 h after injection relative to untreated WT mice [3]: ~20 times | leptin level 3 hr after injection relative to untreated WT mice [3]: 15 times
